Measured values from patent US8952024B2, “Herbicidal pyrimidone derivatives” (E I du Pont de Nemours and Company, priority 2009, dated 2015).

Tests used:
Test in all cases: Test B pre-/postemergence plant response
Type in all cases: in vivo
[1] = system: johnsongrass (Sorghum halepense)
Method in brief: (§1)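 Steps: sow seed in loam–sand soil and spray preemergence, or grow plants in peat-based medium to 1–4 leaves (2–18 cm) and spray postemergence; formulation is non-phytotoxic solvent plus surfactant; hold in greenhouse 13–15 days; score visually vs controls, 0 = no effect, 100 = complete control.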

[2] = system: downy bromegrass (Bromus tectorum)
Method in brief: as §1

[3] = system: green foxtail (Setaria viridis)
Method in brief: as §1

[4] = system: Surinam grass (Brachiaria decumbens)
Method in brief: as §1

[5] = system: giant foxtail (Setaria faberii)
Method in brief: as §1

[6] = system: blackgrass (Alopecurus myosuroides)
Method in brief: as §1

[7] = system: goosegrass (Eleusine indica)
Method in brief: as §1

wild oat (Avena fatua) = system: wild oat (Avena fatua)
Method in brief: as §1

[8] = system: yellow nutsedge (Cyperus esculentus)
Method in brief: as §1

corn (Zea mays) = system: corn (Zea mays)
Method in brief: as §1

[9] = system: morningglory (Ipomoea coccinea)
Method in brief: as §1

[10] = system: velvetleaf (Abutilon theophrasti)
Method in brief: as §1

[11] = system: cocklebur (Xanthium strumarium)
Method in brief: as §1

kochia (Kochia scoparia) = system: kochia (Kochia scoparia)
Method in brief: as §1

[12] = system: woolly cupgrass (Eriochloa villosa)
Method in brief: as §1

soybean (Glycine max) = system: soybean (Glycine max)
Method in brief: as §1

[13] = system: large crabgrass (Digitaria sanguinalis)
Method in brief: as §1

[14] = 31 g ai/ha, postemergence, scale 0 to 100, 0 is no effect, 100 is complete control
[15] = 62 g ai/ha, postemergence, 0 is no effect, 100 is complete control, 13 to 15 days
[16] = Postemergence, 250 g ai/ha, scale 0 to 100 (0 no effect, 100 complete control)
[17] = Postemergence, 125 g ai/ha, visual rating after 13 to 15 days, scale 0 (no effect) to 100 (complete control)

O=C1CCCC(O)=C1C(=O)c1cnc(C2CC2)n(-c2ccccc2)c1=O [Compound 87]
40: Plant response rating, Blackgrass [6, 16]
55: Corn plant response rating (0 to 100 scale) (corn (Zea mays); [15])
5: Plant response rating, Johnsongrass [1, 14] | Plant response rating, Blackgrass [6, 14] | Blackgrass plant response rating (0 to 100 scale) [6, 15]
45: Plant response rating, Johnsongrass [1, 16] | Plant response rating, Morningglory [9, 14] | Morningglory plant response rating (0 to 100 scale) [9, 15]
75: Plant response rating, Foxtail, Green [3, 14] | Plant response rating, Surinam Grass [4, 14] | Surinam Grass plant response rating (0 to 100 scale) [4, 15] | Plant response rating, Foxtail, Giant [5, 14] | Plant response rating, Goosegrass [7, 14] | Plant response rating, Nutsedge, Yellow [8, 16] | Plant response rating, Corn (corn (Zea mays); [17]) | Plant response rating, Corn (corn (Zea mays); [16]) | Cupgrass, Woolly plant response rating (0 to 100 scale) [12, 15] | Plant response rating, Cupgrass, Woolly [12, 17]
25: Johnsongrass plant response rating (0 to 100 scale) [1, 15]
50: Bromegrass, Downy plant response rating (0 to 100 scale) [2, 15] | Plant response rating, Oat, Wild (wild oat (Avena fatua); [14]) | Plant response rating, Cupgrass, Woolly [12, 14]
10: Plant response rating, Nutsedge, Yellow [8, 14]
85: Plant response rating, Surinam Grass [4, 16] | Plant response rating, Crabgrass, Large [13, 14] | Crabgrass, Large plant response rating (0 to 100 scale) [13, 15]
80: Plant response rating, Bromegrass, Downy [2, 16] | Foxtail, Green plant response rating (0 to 100 scale) [3, 15] | Foxtail, Giant plant response rating (0 to 100 scale) [5, 15] | Goosegrass plant response rating (0 to 100 scale) [7, 15]
100: Plant response rating, Velvetleaf [10, 14] | Velvetleaf plant response rating (0 to 100 scale) [10, 15] | Plant response rating, Velvetleaf [10, 16] | Cocklebur plant response rating (0 to 100 scale) [11, 15] | Plant response rating, Cocklebur [11, 17] | Plant response rating, Cocklebur [11, 16] | Plant response rating, Kochia (kochia (Kochia scoparia); [14]) | Kochia plant response rating (0 to 100 scale) (kochia (Kochia scoparia); [15]) | Plant response rating, Kochia (kochia (Kochia scoparia); [16]) | Plant response rating, Soybean (soybean (Glycine max); [16])
98: Plant response rating, Goosegrass [7, 16] | Plant response rating, Cocklebur [11, 14] | Plant response rating, Soybean (soybean (Glycine max); [14]) | Soybean plant response rating (0 to 100 scale) (soybean (Glycine max); [15]) | Plant response rating, Crabgrass, Large [13, 16]
65: Plant response rating, Morningglory [9, 16]
20: Plant response rating, Bromegrass, Downy [2, 14] | Plant response rating, Blackgrass [6, 17] | Plant response rating, Corn (corn (Zea mays); [14])
60: Plant response rating, Bromegrass, Downy [2, 17] | Oat, Wild plant response rating (0 to 100 scale) (wild oat (Avena fatua); [15]) | Nutsedge, Yellow plant response rating (0 to 100 scale) [8, 15]
90: Plant response rating, Oat, Wild (wild oat (Avena fatua); [16]) | Plant response rating, Cupgrass, Woolly [12, 16]
95: Plant response rating, Foxtail, Green [3, 16] | Plant response rating, Foxtail, Giant [5, 16] | Plant response rating, Crabgrass, Large [13, 17]
